Measured values reported in ChEMBL document CHEMBL5365456, “Isolation and biological activity of natural chalcones based on antibacterial mechanism classification” (Bioorg Med Chem, 2023).
Values after ≈ are worked out from the molar mass of the structure shown.

Experiments:
Assay type in all cases: functional
[1] = test system: Mycobacterium tuberculosis variant bovis; test: Antibacterial activity against Mycobacterium bovis BCG transfected with pVV16 vector assessed bacterial growth inhibition by Alamar Blue cell viability assay
[2] = test system: Mycobacterium tuberculosis variant bovis; test: Antibacterial activity against Mycobacterium bovis BCG assessed bacterial growth inhibition by Alamar Blue cell viability assay
[3] = test system: Mycobacterium tuberculosis variant bovis; test: Antibacterial activity against Mycobacterium bovis BCG transfected with pVV16 vector expressing Rv0636 assessed bacterial growth inhibition by Alamar Blue cell viability assay

| Structure (SMILES) | MIC99 [1] | MIC99 [2] | MIC99 [3] |
| --- | --- | --- | --- |
| O=C(/C=C/c1ccc(O)c(O)c1)c1ccc(O)cc1O [BUTEIN] | 43 µg/mL (≈ 158 µM) | 47 µg/mL (≈ 173 µM) | 59 µg/mL (≈ 217 µM) |
| O=C(/C=C/c1ccc(O)cc1)c1ccc(O)cc1O [ISOLIQUIRITIGENIN] | 50 µg/mL (≈ 195 µM) | 50 µg/mL (≈ 195 µM) | 64 µg/mL (≈ 250 µM) |
